Test results as given in the supplement of paper PMC10307832.

Columns and labels:
Experiment in all cases: relative viability (nuclei count vs DMSO), 5 days (fraction); higher = more cells survive
Tipifarnib + Bortezomib = compound: Cn1cncc1[C@@](N)(c1ccc(Cl)cc1)c1ccc2c(c1)c(-c1cccc(Cl)c1)cc(=O)n2C [Tipifarnib] + CC(C)C[C@H](NC(=O)[C@H](Cc1ccccc1)NC(=O)c1cnccn1)B(O)O [Bortezomib] (partner 0.002 µM)
In short: (§1)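 Lung cancer cell lines in 1536-well plates got either a single drug or a fixed anchor-drug dose together with five library-drug doses (not always all listed) in √10 steps, by pin tool, on the day after seeding. Nuclei were counted after 5 days, and relative viability is the treated-to-vehicle ratio of nuclei counts. Values are medians of duplicate plates.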

Tipifarnib + AZD7762 = compound: Cn1cncc1[C@@](N)(c1ccc(Cl)cc1)c1ccc2c(c1)c(-c1cccc(Cl)c1)cc(=O)n2C [Tipifarnib] + NC(=O)Nc1cc(-c2cccc(F)c2)sc1C(=O)N[C@H]1CCCNC1 [AZD7762] (partner 0.2 µM)
In short: as §1

Tipifarnib + Tozasertib = compound: Cn1cncc1[C@@](N)(c1ccc(Cl)cc1)c1ccc2c(c1)c(-c1cccc(Cl)c1)cc(=O)n2C [Tipifarnib] + Cc1cc(Nc2cc(N3CCN(C)CC3)nc(Sc3ccc(NC(=O)C4CC4)cc3)n2)n[nH]1 [Tozasertib] (partner 0.1 µM)
In short: as §1

Tipifarnib + Decitabine = compound: Cn1cncc1[C@@](N)(c1ccc(Cl)cc1)c1ccc2c(c1)c(-c1cccc(Cl)c1)cc(=O)n2C [Tipifarnib] + Nc1ncn([C@H]2C[C@H](O)[C@@H](CO)O2)c(=O)n1 [Decitabine] (partner 2 µM)
In short: as §1

| Cell Line | relative viability (Tipifarnib + Bortezomib; first compound 0.01 µM) | relative viability (Tipifarnib + Bortezomib; first compound 0.03162 µM) | relative viability (Tipifarnib + Bortezomib; first compound 0.1 µM) | relative viability (Tipifarnib + Bortezomib; first compound 0.3162 µM) | relative viability (Tipifarnib + Bortezomib; first compound 1 µM) | relative viability (Tipifarnib + AZD7762; first compound 0.01 µM) | relative viability (Tipifarnib + AZD7762; first compound 0.03162 µM) | relative viability (Tipifarnib + AZD7762; first compound 0.1 µM) | relative viability (Tipifarnib + AZD7762; first compound 0.3162 µM) | relative viability (Tipifarnib + AZD7762; first compound 1 µM) | relative viability (Tipifarnib + Tozasertib; first compound 0.01 µM) | relative viability (Tipifarnib + Tozasertib; first compound 0.03162 µM) | relative viability (Tipifarnib + Tozasertib; first compound 0.1 µM) | relative viability (Tipifarnib + Tozasertib; first compound 0.3162 µM) | relative viability (Tipifarnib + Tozasertib; first compound 1 µM) | relative viability (Tipifarnib + Decitabine; first compound 0.01 µM) | relative viability (Tipifarnib + Decitabine; first compound 0.03162 µM) | relative viability (Tipifarnib + Decitabine; first compound 0.1 µM) | relative viability (Tipifarnib + Decitabine; first compound 0.3162 µM) | relative viability (Tipifarnib + Decitabine; first compound 1 µM) |
| --- | --- | --- | --- | --- | --- | --- | --- | --- | --- | --- | --- | --- | --- | --- | --- | --- | --- | --- | --- | --- |
| NCI-H2085 | 1.15 | 0.729 | 0.695 | 0.601 | 0.72 | 0.979 | 0.73 | 0.67 | 0.478 | 0.552 | 0.723 | 0.663 | 0.468 | 0.437 | 0.617 | 0.558 | 0.59 | 0.519 | 0.493 | 0.536 |
| H3255 | 0.622 | 0.647 | 0.554 | 0.561 | 0.344 | 1.04 | 0.918 | 0.736 | 0.559 | 0.514 | 0.72 | 0.674 | 0.528 | 0.476 | 0.389 | 0.685 | 0.556 | 0.605 | 0.48 | 0.492 |
| NCI-H650 | 0.781 | 0.36 | 0.697 | 0.539 | 0.346 | 1.39 | 1.17 | 0.77 | 0.667 | 0.429 | 0.791 | 0.612 | 0.498 | 0.576 | 0.379 | 0.352 | 0.33 | 0.341 | 0.251 | 0.305 |
| LCLC-103H | 1.06 | 0.79 | 0.973 | 0.832 | 0.581 | 0.784 | 0.76 | 0.735 | 0.713 | 0.679 | 0.413 | 0.375 | 0.364 | 0.309 | 0.31 | 0.757 | 0.672 | 0.785 | 0.635 | 0.673 |
